Test results as given in patent US7714047B2, “Process for producing aqueous fluoropolymer dispension and aqueous fluoropolymer dispersion” (Daikin Industries, Ltd., priority 2003, dated 2010).

Test: Octanol/water partition coefficient (log P) by HPLC elution time against a working curve of standard substances
Type: physicochemical
Conditions: Tosoh ODS-120T column, acetonitrile/0.6% (by mass) aqueous HClO4 = 1/1, 40° C., UV 210 nm, standards heptanoic, octanoic, nonanoic and decanoic acid
Protocol: The octanol/water partition coefficient is the coefficient of partition between 1-octanol and water and is expressed in terms of log P [wherein P represents the ratio between the fluorine-containing surfactant (A) concentration in octanol/fluorine-containing surfactant (A) concentration in water as found upon phase separation of a fluorine-containing surfactant (A)-containing octanol/water mixture (1:1)]. The octanol/water partition coefficient is determined by the measurement method according to OECD Guideline 107. In measuring the octanol/water partition coefficient, such methods as the flask shaking method and reversed-phase high performance liquid chromatography can generally be employed.
(5) Octanol/Water Partition Coefficient
Standard substances (heptanoic acid, octanoic acid, nonanoic acid and decanoic acid) each having a known octanol/water partition coefficient were subjected to HPLC under the following conditions: column: Tosoh ODS-120T column (ø4.6 mm×250 mm), eluent: acetonitrile/0.6% (by mass) aqueous solution of HClO4=1/1 (vol/vol %), flow rate: 1.0 ml/minute, sample size: 300 μL, column temperature: 40° C., detection light: UV 210 nm. A working curve showing the relation between the elution time and the known octanol/water partition coefficient was then constructed. The coefficient in question was determined from the elution time in HPLC for the sample solution based on that working curve.

Point of comparison: `N.O=C(O)C(F)(OC(F)(F)C(F)(F)C(F)(F)F)C(F)(F)F` (centres unmarked) [Fluorine-containing surfactant 2, C3F7OCF(CF3)COONH4], “logP: octanol/water partition coefficient” value 2.5. Against it:
- N.O=C(O)C(F)(F)C(F)(F)C(F)(F)C(F)(F)C(F)(F)C(F)(F)C(F)(F)F [Fluorine-containing surfactant 5, CF3(CF2CF2)3COONH4] — higher, 3.5
- N.O=C(O)C(F)(OC(F)(F)C(F)(OC(F)(F)F)C(F)(F)F)C(F)(F)F (centres unmarked) [Fluorine-containing surfactant 3, CF3O(CF(CF3)CF2O)CF(CF3)COONH4] — higher, 3.4
- CF3CF2(CF2CF2)2COONH4 [Fluorine-containing surfactant 4] — higher, 3.0
- N.O=C(O)C(F)(F)C(F)(F)C(F)(F)C(F)(F)C(F)(F)C(F)F [Fluorine-containing surfactant 1, H(CF2CF2)3COONH4] — within 0.2 log units, 2.4
